Source: patent US20050059605A1, “Chemically modified metabolites of regulatory peptides and methods of producing and using same” (priority 2003, published 2005)
Where no end group is shown, it is not given here.

Assays:
[1] = test system: whole anterior pituitary culture; assay: cAMP production stimulated by GRF analogues in whole anterior pituitary culture; format: cell-based; details: 10^−6 M, compared to analogue 356, FIG. 6
Source text: For comparison, a DPPIV resistant analogue of GRF (analogue 280) was shown.

[2] = test system: freshly isolated hepatocytes; assay: Effects of glucagon and analogues on freshly isolated hepatocyte cAMP production; format: cell-based, rat; details: 10^−7M, n=2, FIG. 3, compared to analogue 357 or glucagon
Method: All experimental procedures were performed under isoflurane (2.5%) anesthesia according to an experimental protocol approved by Ste-Justine Hospital (Montreal) animal care committee. […] The animal was perfused through the heart to remove a maximal amount of blood from the liver (acquire a light brown color). A catheter (PE-90) was then inserted in the portal vein and the liver further perfused to eliminate any trace of blood. The hepatic artery was also cannulated (PE-50) and perfused. The liver was then carefully removed from the abdominal cavity and placed into a 250 ml beaker. Digesting HEPES buffer containing 9650U collagenase and 20U elastase at 37° C. was placed into the beaker and circulated in a closed loop via the catheters for 10 minutes at maximal speed. The buffer was replaced with a fresh solution of collagenase and elastase and perfusion continues for 10 additional minutes. […]
Stimulation studies were performed at a concentration of 1 million cells per tube; 5 minutes of pre-treatment with 0.1 mM IBMX, with or without glucagon agonists (10^−7M) compared to treatment with glucagon (10^−7M). […] The cAMP levels in the tubes were determined using a radioimmunoassay kit (Amersham DPC kit). The data are expressed as pmol cAMP/million cells.

C57BL/ks db/db mice = assay: Glucose levels after subcutaneous injection in fasted and re-fed db/db mice; format: in vivo; details: 25 μg/mice (500 μg/kg) subcutaneous, 30 minutes of feeding subsequent to overnight fasting, compared to native GLP-1, FIG. 5
RINm5F cells = assay: Dose response curves of GLP-1 analogues on cAMP production in RINm5F cells; format: cell-based, rat; details: n=3, FIG. 4
Method: RINm5F cells (ATCC # CRL-2058) were grown according to the manufacturer's specifications. Cells from […] confluent flasks were trypsinized and counted. 20 000 cells/well were seeded in 96-well plate (White Costar plate with clear bottom) in 100 μl media. Cells were grown four days past confluence before being using for experiments.
Stock solutions of agents tested were prepared in DDH2O+0.1% BSA at a concentration of 1 mM (correcting for peptide purity and peptide content when available) immediately prior to the beginning of the assay. From the stock solutions, 2× dilutions (2×10^−12 M to 2×10^−5 M) were made in RPMI medium containing 0.5 mM IBMX. Cell culture media was gently removed from wells. Cells were then washed once with RPMI containing 0.5 mM IBMX and then pre-incubated in 100 μl RPMI/0.5 mM IBMX at 37° C. for 10 minutes. After pre-incubation, 100 μl of each 2× dilutions were added to wells in triplicates and incubated at 37° C. for 40 minutes. At the end of incubation, the supernatant was collected and assayed for cAMP using a radioimmunoassay kit (DPC). Radioactive counts were transformed into cAMP amounts using a standard curve. cAMP values were corrected for total protein content in the corresponding wells determined by Coomassie blue assay. cAMP values were expressed as mean±SEM in pmol/mg protein (FIG. 2). […]

## 4-Methoxyphenethylamine-mGly-GRF-1 (3-29) amide [Compound 358]
[1]
  cAMP response: significantly greater cAMP response

## 4-Methoxyphenethylamine-mGly-Glucagon (3-29) amide [Compound 361]
[2]
  intracellular cAMP levels: significantly higher intracellular cAMP levels

## 4-Methoxyphenetylamine-mGly-GLP-1 (9-36) amide [Compound 288]
C57BL/ks db/db mice
  glucose levels (hypoglycemic response): more significant hypoglycemic response
RINm5F cells
  cAMP production: increased CAMP production

## Glucagon (3-29) amide (QGTFTSDYSKYLDSRRAQDFVQWLMNT-NH2; UniProt P01275 55-81, looked up, fragment) [Compound 357, glucagon analogue lacking the His-Ser dipeptide, reference compound]
[2]
  intracellular cAMP levels: negligible response
